US10258701B2, “Labeled evans blue dye derivative for in vivo serum albumin labeling” (The United States of America, as represented by the …, priority 2015, dated 2019)
Values joined by “and” are separate entries in the source; they are usually repeats but may differ in a detail not shown here. Equal entries are not always repeated.

Molecular target: albumin (Homo sapiens, UniProt P02768)
Experiment: Saturation binding assay of NEB with albumin (bound/unbound separated by agarose gel electrophoresis)
Details: unbound NEB quantified, read-out: dissociation constant (Kd) of NEB to albumin
From the text: In a particular embodiment, the compound of formula (I) (also referred to herein as “NEB”) wherein n is 0 can be synthesized in two steps starting from o-tolidine as shown in Scheme 1. 1, 4, 7-triazacyclononane-N,N,N″-triacetic acid-3HCl (“NOTA”) was first coupled to o-tolidine using diethyl cyanophosphonate to give NOTA-o-tolidine in 26% yield after preparative reversed-phase HPLC. NOTA-o-tolidine was then coupled to 1-amino-8-naphthol-2,4-disulfonic acid to give NEB through the formation of diazonium salt with a yield of 46.6%. The purity of the product was >98% based on HPLC analysis and the identity of the product was confirmed by LC-MS. This truncated version of Evans blue retained the binding ability with albumin since stable NEB/albumin complex was confirmed by LC/MS. The complex formation was also confirmed by saturation binding assay. The bound NEB could be separated from the unbound NEB using agarose gel electrophoresis. […] The ^18F-AlF complex of NEB is also referred to herein as ^18F-AlF-NEB. The ^64CU complex of NEB is also referred to herein as ^64Cu-NEB.

Chain of albumin (P02768 25-609, species assumed): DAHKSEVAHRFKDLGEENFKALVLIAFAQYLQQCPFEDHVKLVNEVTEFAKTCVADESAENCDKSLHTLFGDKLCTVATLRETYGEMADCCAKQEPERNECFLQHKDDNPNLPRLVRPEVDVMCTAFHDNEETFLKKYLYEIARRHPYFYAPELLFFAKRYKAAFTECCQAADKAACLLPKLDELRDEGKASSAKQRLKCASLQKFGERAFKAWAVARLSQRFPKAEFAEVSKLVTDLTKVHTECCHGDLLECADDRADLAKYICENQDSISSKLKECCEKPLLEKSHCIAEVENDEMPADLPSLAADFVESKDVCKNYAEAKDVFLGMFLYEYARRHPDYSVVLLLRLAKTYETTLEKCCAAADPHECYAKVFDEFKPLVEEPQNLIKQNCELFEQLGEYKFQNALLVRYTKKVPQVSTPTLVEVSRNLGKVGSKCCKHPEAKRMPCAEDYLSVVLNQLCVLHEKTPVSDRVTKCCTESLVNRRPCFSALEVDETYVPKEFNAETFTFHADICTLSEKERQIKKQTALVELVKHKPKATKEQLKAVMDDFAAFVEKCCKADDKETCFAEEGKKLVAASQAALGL

SMILES: Cc1cc(-c2ccc(NC(=O)CN3CCN(CC(=O)O)CCN(CC(=O)O)CC3)c(C)c2)ccc1N=Nc1ccc2c(S(=O)(=O)O)cc(S(=O)(=O)O)c(N)c2c1O [NEB]
- Kd: 48.9 µM and ~50 µM
